Assays:
MYC signature [1] = assay: Gene expression array, GSEA of MYC signature, DU145; format: cell-based; settings: DU145 after JQ1 treatment
Method: (§1) Cells treated with only vehicle or 10 nM DHT served as controls. […] Expression profiling was performed using the Agilent Whole Human Genome Oligo Microarray (SantaClara, Calif.) according to the manufacturer's protocol. All samples were run in technical duplicates or quadruplets against control. Over- and under-expressed gene sets were generated by filtering to include only 2-fold average over- or underexpression (Log ratio with p<0.001) in all hybridizations.

VCaP tumor xenograft = test system: VCaP tumor xenograft
Method: (§2) Four week-old male SCID C.B17 mice were procured from a breeding colony at University of Michigan. All procedures involving mice were approved by the University Committee on Use and Care of Animals (UCUCA) at the University of Michigan and conform to all regulatory standards. Mice were anesthetized using 2% Isoflurane (inhalation) and 2×10^6 VCaP prostate cancer cells suspended in 100 μl of PBS with 50% Matrigel (BD Biosciences) were implanted subcutaneously into the dorsal flank on both sides of the mice. […] Growth in tumor volume was recorded using digital calipers and tumor volumes were estimated using the formula (π/6) (L×W^2), where L=length of tumor and W=width. Loss of body weight during the course of the study was also monitored. At the end of the studies mice were sacrificed and tumors extracted and weighed. Additionally, femur bone marrow, liver and spleen were harvested to examine spontaneous metastasis by detecting human-Alu sequence. […] All procedures involving mice were approved by the University Committee on Use and Care of Animals (UCUCA) at the University of Michigan and conform to all regulatory standards.

MYC signature [2] = assay: Gene expression array, GSEA of MYC signature, 22RV1; format: cell-based; settings: 22RV1 after JQ1 treatment
Method: as §1

VCaP xenograft model = assay: Spontaneous metastasis in the VCaP xenograft model (human Alu qPCR); format: in vivo, mice; settings: femur, liver and spleen; JQ1 50 mg/kg, MDV3100 10 mg/kg
Method: as §2

PSA and ERG = assay: QRT-PCR and immunoblot of AR-target genes in VCaP; format: cell-based; settings: VCaP cells; FIGS. 4 and 5
Method: Total RNA was isolated from cells using RNeasy Mini Kit (Qiagen) and cDNA was synthesized from 1,000 ng total RNA using SuperScript III First-Strand Synthesis SuperMix (Invitrogen). QPCRs were performed in duplicate or triplicate using Taqman assays (Applied Biosystems) or standard SYBR green reagents and protocols on a StepOnePlus Real-Time PCR system (Applied Biosystems). The target mRNA expression was quantified using ΔΔCt method and normalized to GAPDH expression. All primers were designed using Primer 3 (http://frodo.wi.mit.edu/primer3/) and synthesized by Integrated DNA Technologies (Coralville, Iowa).
For Western blot analysis, 200 ug total protein extract was boiled in sample buffer and 10-20 μg aliquots were separated by SDS-PAGE and transferred onto Polyvinylidene Difluoride membrane (GE Healthcare). The membrane was incubated for one hour in blocking buffer [Tris-buffered saline, 0.1% Tween (TBS-T), 5% nonfat dry milk] followed by incubation overnight at 4° C. with the primary antibody. Following a wash with TBS-T, the blot was incubated with horseradish peroxidase-conjugated secondary antibody and signals were visualized by enhanced chemiluminescence system as per manufacturer's protocol (GE Healthcare).

[3] = test system: RWPE and PC3 cells overexpressing ERG; assay: Matrigel invasion assay, RWPE and PC3 cells overexpressing ERG; format: cell-based; settings: 500 nM
Method: Medium containing 10% FBS in the lower chamber served as chemoattractant. […] For colorimetric assays, the inserts were treated with 150 μl of 10% acetic acid and the absorbance measured at 560 nm using a spectrophotometer (GE Healthcare).

BRD4 = assay: ChIP-seq of BRD4 in DHT-stimulated VCaP cells; format: cell-based; settings: JQ1 500 nM, FIG. 20
Method: The ChIP assays for BRD2, BRD3, BRD4, AR, RNA PolII, ERG and H3K27ac were performed using HighCell ChIP kit (Diagenode) according to manufacturer's protocol. […] Next, cells were cross-linked for 10 min. with 1% formaldehyde. […] Chromatin equivalent to 5×10^6 cells were used for ChIP using different antibodies. ChIP DNA was isolated (IPure Kit, Diagenode) from samples by incubation with the antibody at 4° C. overnight followed by wash and reversal of cross-linking. The ChIP-seq sample preparation for sequencing was performed according to the manufacturer's instructions (Illumina). […] A single A-base was added to fragment ends by Klenow fragment (3′ to 5′ exo minus; NEB) followed by ligation of Illumina adaptors (Quick ligase, NEB). The adaptor-modified DNA fragments were enriched by PCR using the Illumina Barcode primers and Phusion DNA polymerase (NEB). PCR products were size selected using 3% NuSieve agarose gels (Lonza) followed by gel extraction using QIAEX II reagents (QIAGEN). Libraries were quantified with the Bioanalyzer 2100 (Agilent) and sequenced on the Illumina HiSeq 2000 Sequencer (100 nucleotide read length).
For enrichment plots shown in FIGS. 17, 19 and 20, identified peaks for each sample are centered by peak summit and average coverage per million was counted within 1500 bp relative to the peak center.

[4] = test system: VCaP prostate cancer cells; assay: Cell growth inhibition, VCaP prostate cancer cells (Cell-Titer GLO); format: cell-based; settings: 8 days; FIG. 22
Method: For prostate cancer cell lines, VCaP prostate cancer cells were grown in DMEM with Glutamax (Gibco) supplemented with 10% FBS (Invitrogen) in 5% CO2 cell culture incubator. All cell lines were tested and found to be free of mycoplasma contamination. Cells were seeded in 96-well plates at 2,000-10,000 cells per well (optimum density for growth) in a total volume of […] media containing 10% FBS. Serially diluted compounds in […] media were added to the cells 12 h later. […] The values were normalized and IC50 was calculated using GraphPad Prism software.
Cells were seeded in 96-well plates at 2000-10,000 cells/well (optimum density for growth) in a total volume of 100 μl media containing 10% FBS. Serially diluted compounds in 100 μl media were added to the cells 12 h later. Following 96 h. incubation, cell viability was assessed by Cell-Titer GLO (Promega). The values were normalized and IC50 was calculated using GraphPad Prism software. […] After 12 days cells were fixed with methanol, stained with crystal violet and photographed. For colorimetric assays, the stained wells were treated with 500 μl 10% acetic acid and the absorbance was measured at 560 nm using a spectrophotometer.

[5] = gene set SCHLOSSER_MYC_AND_SERUM_RESPONSE_SYNERGY
[6] = gene set SCHLOSSER_MYC_TARGETS_AND_SERUM_RESPONSE_UP
[7] = gene set SCHUHMACHER_MYC_TARGETS_UP

SMILES: Cc1sc2c(c1C)C(c1ccc(Cl)cc1)=N[C@@H](CC(=O)OC(C)(C)C)c1nnc(C)n1-2 [JQ1]
- NES (MYC signature [1]; gene set MYC_UP.V1_UP): −0.952
- NES (MYC signature [1]; [5]): −1.085
- NES (MYC signature [1]; [6]): −0.734
- NES (MYC signature [1]; [7]): −1.086
- tumor volume/weight (VCaP tumor xenograft; VCaP tumor-bearing mice, JQ1 50 mg/kg, MDV3100 10 mg/kg, 5 days/week, FIGS. 23-25): significant reduction in tumor volume/weight
- tolerability (VCaP tumor xenograft; mouse, in vivo): well tolerated
- NES (MYC signature [2]; gene set MYC_UP.V1_UP): −1.712
- NES (MYC signature [2]; [5]): −1.521
- NES (MYC signature [2]; [6]): 1.353
- NES (MYC signature [2]; [7]): −1.851
- spontaneous metastasis (VCaP xenograft model): no evidence of metastasis
- PSA and ERG mRNA and protein level (PSA and ERG): dose-dependent decrease in PSA and ERG
- ERG-mediated invasion [3]: attenuation of ERG-mediated invasion
- DHT induced BRD4 recruitment to the AR-BRD4 shared loci (BRD4): almost completely abrogated
- VCaP cell viability in vitro [4]: suppression of cell growth at sub-micromolar concentrations

From patent US9580430B2, “9H-pyrimido[4,5-B]indoles and related analogs as BET bromodomain inhibitors” (THE REGENTS OF THE UNIVERSITY OF MICHIGAN, priority 2014, dated 2017)
